Experiment: (§1) The drug is tested on WLS-027 corresponding to human gut metagenome with ENA study accession number: PRJEB37062 and ENA sample accession number: ERS12561744 for biotransformation under anaerobic condition. The drug concentrations were measured over 9 timepoints collected between 0 and 24 hours of incubation by liquid-chromatography-coupled mass spectrometry (LC–MS)
Conditions: 2 µM
Further: call rule not given here.

Row | Bacterial Biotransformation | Structure (SMILES)
1 | Compound NOT metabolized | Br.CN(C)CCCC1(c2ccc(F)cc2)OCc2cc(C#N)ccc21 (stereo not given) [CITALOPRAM HYDROBROMIDE]
2 | Compound metabolized | Cc1ccc(S(=O)(=O)NC(=O)NN2CC3CCCC3C2)cc1 (stereo not given) [GLICLAZIDE]

Experiment: as §1, with “Z-006” for “WLS-027”, “mouse” for “human”, “ERS12561806” for “ERS12561744”
Conditions: 2 µM

Row | Bacterial Biotransformation | Structure (SMILES)
3 | Compound NOT metabolized | Br.CN(C)CCCC1(c2ccc(F)cc2)OCc2cc(C#N)ccc21 (stereo not given) [CITALOPRAM HYDROBROMIDE]
4 | Compound metabolized | Cc1ccc(S(=O)(=O)NC(=O)NN2CC3CCCC3C2)cc1 (stereo not given) [GLICLAZIDE]

Conditions: human gut metagenome, 24 h, 2 µM

Row | Bacterial Biotransformation | Structure (SMILES)
5 | Compound metabolized | Br.CN(C)CCCC1(c2ccc(F)cc2)OCc2cc(C#N)ccc21 (stereo not given) [CITALOPRAM HYDROBROMIDE]
6 | Compound metabolized | Cc1ccc(S(=O)(=O)NC(=O)NN2CC3CCCC3C2)cc1 (stereo not given) [GLICLAZIDE]

Conditions: human gut metagenome, 24 h, 2 µM
Remark: another data set of the same source

Row | Bacterial Biotransformation | Structure (SMILES)
7 | Compound metabolized | Br.CN(C)CCCC1(c2ccc(F)cc2)OCc2cc(C#N)ccc21 (stereo not given) [CITALOPRAM HYDROBROMIDE]
8 | Compound metabolized | Cc1ccc(S(=O)(=O)NC(=O)NN2CC3CCCC3C2)cc1 (stereo not given) [GLICLAZIDE]

Experiment: as §1, with “Z-023” for “WLS-027”, “to” for “to human gut”, “ERS12561822” for “ERS12561744”
Conditions: 2 µM

Row | Bacterial Biotransformation | Structure (SMILES)
9 | Compound NOT metabolized | Br.CN(C)CCCC1(c2ccc(F)cc2)OCc2cc(C#N)ccc21 (stereo not given) [CITALOPRAM HYDROBROMIDE]
10 | Compound metabolized | Cc1ccc(S(=O)(=O)NC(=O)NN2CC3CCCC3C2)cc1 (stereo not given) [GLICLAZIDE]

Experiment: as §1, with “Z-021” for “WLS-027”, “to” for “to human gut”, “ERS12561820” for “ERS12561744”
Conditions: 2 µM

Row | Bacterial Biotransformation | Structure (SMILES)
11 | Compound NOT metabolized | Br.CN(C)CCCC1(c2ccc(F)cc2)OCc2cc(C#N)ccc21 (stereo not given) [CITALOPRAM HYDROBROMIDE]
12 | Compound NOT metabolized | Cc1ccc(S(=O)(=O)NC(=O)NN2CC3CCCC3C2)cc1 (stereo not given) [GLICLAZIDE]

Conditions: human gut metagenome, 24 h, 2 µM
Remark: another data set of the same source

Row | Bacterial Biotransformation | Structure (SMILES)
13 | Compound NOT metabolized | Br.CN(C)CCCC1(c2ccc(F)cc2)OCc2cc(C#N)ccc21 (stereo not given) [CITALOPRAM HYDROBROMIDE]
14 | Compound metabolized | Cc1ccc(S(=O)(=O)NC(=O)NN2CC3CCCC3C2)cc1 (stereo not given) [GLICLAZIDE]

Experiment: as §1, with “Z-011” for “WLS-027”, “mouse” for “human”, “ERS12561811” for “ERS12561744”
Conditions: 2 µM

Row | Bacterial Biotransformation | Structure (SMILES)
15 | Compound metabolized | Br.CN(C)CCCC1(c2ccc(F)cc2)OCc2cc(C#N)ccc21 (stereo not given) [CITALOPRAM HYDROBROMIDE]
16 | Compound metabolized | Cc1ccc(S(=O)(=O)NC(=O)NN2CC3CCCC3C2)cc1 (stereo not given) [GLICLAZIDE]

Experiment: as §1, with “WLS-039” for “WLS-027”, “ERS12561746” for “ERS12561744”
Conditions: 2 µM

Row | Bacterial Biotransformation | Structure (SMILES)
17 | Compound NOT metabolized | Br.CN(C)CCCC1(c2ccc(F)cc2)OCc2cc(C#N)ccc21 (stereo not given) [CITALOPRAM HYDROBROMIDE]
18 | Compound metabolized | Cc1ccc(S(=O)(=O)NC(=O)NN2CC3CCCC3C2)cc1 (stereo not given) [GLICLAZIDE]

Experiment: as §1, with “Z-022” for “WLS-027”, “mouse” for “human”, “ERS12561821” for “ERS12561744”
Conditions: 2 µM

Row | Bacterial Biotransformation | Structure (SMILES)
19 | Compound NOT metabolized | Br.CN(C)CCCC1(c2ccc(F)cc2)OCc2cc(C#N)ccc21 (stereo not given) [CITALOPRAM HYDROBROMIDE]
20 | Compound metabolized | Cc1ccc(S(=O)(=O)NC(=O)NN2CC3CCCC3C2)cc1 (stereo not given) [GLICLAZIDE]

Conditions: human gut metagenome, 24 h, 2 µM
Remark: another data set of the same source

Row | Bacterial Biotransformation | Structure (SMILES)
21 | Compound NOT metabolized | Br.CN(C)CCCC1(c2ccc(F)cc2)OCc2cc(C#N)ccc21 (stereo not given) [CITALOPRAM HYDROBROMIDE]
22 | Compound metabolized | Cc1ccc(S(=O)(=O)NC(=O)NN2CC3CCCC3C2)cc1 (stereo not given) [GLICLAZIDE]

Conditions: human gut metagenome, 24 h, 2 µM
Remark: another data set of the same source

Row | Bacterial Biotransformation | Structure (SMILES)
23 | Compound NOT metabolized | Br.CN(C)CCCC1(c2ccc(F)cc2)OCc2cc(C#N)ccc21 (stereo not given) [CITALOPRAM HYDROBROMIDE]
24 | Compound NOT metabolized | Cc1ccc(S(=O)(=O)NC(=O)NN2CC3CCCC3C2)cc1 (stereo not given) [GLICLAZIDE]

Conditions: human gut metagenome, 24 h, 2 µM
Remark: another data set of the same source

Row | Bacterial Biotransformation | Structure (SMILES)
25 | Compound metabolized | Br.CN(C)CCCC1(c2ccc(F)cc2)OCc2cc(C#N)ccc21 (stereo not given) [CITALOPRAM HYDROBROMIDE]
26 | Compound metabolized | Cc1ccc(S(=O)(=O)NC(=O)NN2CC3CCCC3C2)cc1 (stereo not given) [GLICLAZIDE]

Experiment: as §1, with “WLS-010” for “WLS-027”, “ERS12561743” for “ERS12561744”
Conditions: 2 µM

Row | Bacterial Biotransformation | Structure (SMILES)
27 | Compound NOT metabolized | Br.CN(C)CCCC1(c2ccc(F)cc2)OCc2cc(C#N)ccc21 (stereo not given) [CITALOPRAM HYDROBROMIDE]
28 | Compound metabolized | Cc1ccc(S(=O)(=O)NC(=O)NN2CC3CCCC3C2)cc1 (stereo not given) [GLICLAZIDE]

Conditions: human gut metagenome, 24 h, 2 µM
Remark: another data set of the same source

Row | Bacterial Biotransformation | Structure (SMILES)
29 | Compound NOT metabolized | Br.CN(C)CCCC1(c2ccc(F)cc2)OCc2cc(C#N)ccc21 (stereo not given) [CITALOPRAM HYDROBROMIDE]
30 | Compound NOT metabolized | Cc1ccc(S(=O)(=O)NC(=O)NN2CC3CCCC3C2)cc1 (stereo not given) [GLICLAZIDE]

Experiment: as §1, with “WLS-098” for “WLS-027”, “ERS12561754” for “ERS12561744”
Conditions: 2 µM

Row | Bacterial Biotransformation | Structure (SMILES)
31 | Compound metabolized | Br.CN(C)CCCC1(c2ccc(F)cc2)OCc2cc(C#N)ccc21 (stereo not given) [CITALOPRAM HYDROBROMIDE]
32 | Compound metabolized | Cc1ccc(S(=O)(=O)NC(=O)NN2CC3CCCC3C2)cc1 (stereo not given) [GLICLAZIDE]

Conditions: human gut metagenome, 24 h, 2 µM
Remark: another data set of the same source

Row | Bacterial Biotransformation | Structure (SMILES)
33 | Compound metabolized | Br.CN(C)CCCC1(c2ccc(F)cc2)OCc2cc(C#N)ccc21 (stereo not given) [CITALOPRAM HYDROBROMIDE]
34 | Compound metabolized | Cc1ccc(S(=O)(=O)NC(=O)NN2CC3CCCC3C2)cc1 (stereo not given) [GLICLAZIDE]

Experiment: as §1, with “Z-025” for “WLS-027”, “rabbit” for “human”, “ERS12561824” for “ERS12561744”
Conditions: 2 µM

Row | Bacterial Biotransformation | Structure (SMILES)
35 | Compound NOT metabolized | Br.CN(C)CCCC1(c2ccc(F)cc2)OCc2cc(C#N)ccc21 (stereo not given) [CITALOPRAM HYDROBROMIDE]
36 | Compound NOT metabolized | Cc1ccc(S(=O)(=O)NC(=O)NN2CC3CCCC3C2)cc1 (stereo not given) [GLICLAZIDE]

Conditions: human gut metagenome, 24 h, 2 µM
Remark: another data set of the same source

Row | Bacterial Biotransformation | Structure (SMILES)
37 | Compound metabolized | Br.CN(C)CCCC1(c2ccc(F)cc2)OCc2cc(C#N)ccc21 (stereo not given) [CITALOPRAM HYDROBROMIDE]
38 | Compound metabolized | Cc1ccc(S(=O)(=O)NC(=O)NN2CC3CCCC3C2)cc1 (stereo not given) [GLICLAZIDE]

Experiment: as §1, with “WLS-052” for “WLS-027”, “ERS12561747” for “ERS12561744”
Conditions: 2 µM

Row | Bacterial Biotransformation | Structure (SMILES)
39 | Compound NOT metabolized | Br.CN(C)CCCC1(c2ccc(F)cc2)OCc2cc(C#N)ccc21 (stereo not given) [CITALOPRAM HYDROBROMIDE]
40 | Compound metabolized | Cc1ccc(S(=O)(=O)NC(=O)NN2CC3CCCC3C2)cc1 (stereo not given) [GLICLAZIDE]
